Where a SMILES comes first, the peptide text is derived from it.

Nicotinic acetylcholine receptor alpha9/alpha10, sequence (P43144 whole entry): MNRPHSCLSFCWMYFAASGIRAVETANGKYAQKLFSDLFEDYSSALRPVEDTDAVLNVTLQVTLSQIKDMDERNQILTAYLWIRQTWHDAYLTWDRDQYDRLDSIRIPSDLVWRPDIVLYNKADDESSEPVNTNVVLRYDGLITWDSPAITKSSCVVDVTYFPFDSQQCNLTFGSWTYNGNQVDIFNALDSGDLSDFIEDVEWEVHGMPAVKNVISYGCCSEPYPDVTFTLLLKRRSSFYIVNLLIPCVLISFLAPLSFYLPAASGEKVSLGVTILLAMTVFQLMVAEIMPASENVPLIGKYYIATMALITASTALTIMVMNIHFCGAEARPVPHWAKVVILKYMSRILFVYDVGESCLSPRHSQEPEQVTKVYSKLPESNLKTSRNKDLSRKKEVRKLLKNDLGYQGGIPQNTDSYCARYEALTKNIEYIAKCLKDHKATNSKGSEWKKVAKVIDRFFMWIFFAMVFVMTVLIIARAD
Nicotinic acetylcholine receptor alpha9/alpha10, sequence (Q9JLB5 whole entry): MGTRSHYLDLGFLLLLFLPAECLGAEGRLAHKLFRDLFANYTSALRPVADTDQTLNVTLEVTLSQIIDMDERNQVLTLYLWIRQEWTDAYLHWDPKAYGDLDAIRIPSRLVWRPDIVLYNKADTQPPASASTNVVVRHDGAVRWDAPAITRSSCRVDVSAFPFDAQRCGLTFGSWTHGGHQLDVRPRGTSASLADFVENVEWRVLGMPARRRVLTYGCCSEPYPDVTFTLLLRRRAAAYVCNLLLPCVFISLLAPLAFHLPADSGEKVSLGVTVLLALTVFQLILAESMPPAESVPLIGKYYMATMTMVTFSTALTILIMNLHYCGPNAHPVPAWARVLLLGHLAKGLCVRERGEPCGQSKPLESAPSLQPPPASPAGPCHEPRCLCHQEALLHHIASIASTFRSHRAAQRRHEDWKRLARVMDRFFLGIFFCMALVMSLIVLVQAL

The assay has as its target Nicotinic acetylcholine receptor alpha9/alpha10 (Rattus norvegicus, UniProt P43144+Q9JLB5). Nature of the assay: Antagonist activity at rat alpha9alpha10 nACh receptor expressed in Xenopus oocyte assessed as inhibition of acetylcholine-induced response at -70 mV holding potential by voltage-clamp based electrophysiological assay. The assay is classed as cell-based.
In the case of `CC[C@H](C)[C@@H]1NC(=O)[C@H](C)NC(=O)[C@H](C)NC(=O)[C@@H](NC(=O)[C@H](Cc2ccc(O)cc2)NC(=O)[C@H](CCCNC(=N)N)NC(=O)[C@H](CCCNC(=N)N)NC(=O)[C@H](CCCNC(=N)N)NC(=O)[C@H](CCCNC(=N)N)NC(=O)[C@H](CC(=O)O)NC(=O)[C@H](Cc2ccc(O)cc2)NC(=O)[C@@H]2CCCN2C(=O)[C@H](CO)NC(=O)[C@H](CCCNC(=N)N)NC(=O)[C@@H]2CSSC[C@H](NC(=O)[C@@H](N)[C@@H](C)O)C(=O)N[C@@H](CCCNC(=N)N)C(=O)N[C@@H](CO)C(=O)N[C@@H](CO)C(=O)NCC(=O)N[C@@H](CCCNC(=N)N)C(=O)N[C@@H](Cc3ccc(O)cc3)C(=O)N2)CSSC[C@@H](C(=O)N[C@H](C(=O)O)C(C)C)NC(=O)[C@H](C)NC(=O)[C@H](CC(=O)O)NC(=O)[C@H]([C@@H](C)O)NC1=O`, the IC50 (in general, the concentration that gives 50% inhibition) is 180 nM. As for `CC[C@H](C)[C@@H]1NC(=O)[C@H](CCCNC(=N)N)NC(=O)[C@H](CCCNC(=N)N)NC(=O)[C@@H](NC(=O)[C@H](Cc2ccc(O)cc2)NC(=O)[C@H](CCCNC(=N)N)NC(=O)[C@H](C)NC(=O)[C@H](C)NC(=O)[C@H](CCCNC(=N)N)NC(=O)[C@H](CC(=O)O)NC(=O)[C@H](Cc2ccc(O)cc2)NC(=O)[C@@H]2CCCN2C(=O)[C@H](CO)NC(=O)[C@H](CCCNC(=N)N)NC(=O)[C@@H]2CSSC[C@H](NC(=O)[C@@H](N)[C@@H](C)O)C(=O)N[C@@H](CCCNC(=N)N)C(=O)N[C@@H](CO)C(=O)N[C@@H](CO)C(=O)NCC(=O)N[C@@H](CCCNC(=N)N)C(=O)N[C@@H](Cc3ccc(O)cc3)C(=O)N2)CSSC[C@@H](C(=O)N[C@H](C(=O)O)C(C)C)NC(=O)[C@H](C)NC(=O)[C@H](CC(=O)O)NC(=O)[C@H]([C@@H](C)O)NC1=O`, the IC50 came to 130 nM. As for `CC[C@H](C)[C@@H]1NC(=O)[C@H](CCCNC(=N)N)NC(=O)[C@H](CCCNC(=N)N)NC(=O)[C@@H](NC(=O)[C@H](Cc2ccc(O)cc2)NC(=O)[C@H](C)NC(=O)[C@H](CCCNC(=N)N)NC(=O)[C@H](CCCNC(=N)N)NC(=O)[C@H](C)NC(=O)[C@H](CC(=O)O)NC(=O)[C@H](Cc2ccc(O)cc2)NC(=O)[C@@H]2CCCN2C(=O)[C@H](CO)NC(=O)[C@H](CCCNC(=N)N)NC(=O)[C@@H]2CSSC[C@H](NC(=O)[C@@H](N)[C@@H](C)O)C(=O)N[C@@H](CCCNC(=N)N)C(=O)N[C@@H](CO)C(=O)N[C@@H](CO)C(=O)NCC(=O)N[C@@H](CCCNC(=N)N)C(=O)N[C@@H](Cc3ccc(O)cc3)C(=O)N2)CSSC[C@@H](C(=O)N[C@H](C(=O)O)C(C)C)NC(=O)[C@H](C)NC(=O)[C@H](CC(=O)O)NC(=O)[C@H]([C@@H](C)O)NC1=O`, the IC50 stood at 350 nM.

Take `CC[C@H](C)[C@@H]1NC(=O)[C@H](CCCNC(=N)N)NC(=O)[C@H](CCCNC(=N)N)NC(=O)[C@@H](NC(=O)[C@H](Cc2ccc(O)cc2)NC(=O)[C@H](CCCNC(=N)N)NC(=O)[C@H](CCCNC(=N)N)NC(=O)[C@H](CCCNC(=N)N)NC(=O)[C@H](CCCNC(=N)N)NC(=O)[C@H](CC(=O)O)NC(=O)[C@H](Cc2ccc(O)cc2)NC(=O)[C@@H]2CCCN2C(=O)[C@H](CO)NC(=O)[C@H](C)NC(=O)[C@@H]2CSSC[C@H](NC(=O)[C@@H](N)[C@@H](C)O)C(=O)N[C@@H](CCCNC(=N)N)C(=O)N[C@@H](CO)C(=O)N[C@@H](CO)C(=O)NCC(=O)N[C@@H](C)C(=O)N[C@@H](Cc3ccc(O)cc3)C(=O)N2)CSSC[C@@H](C(=O)N[C@H](C(=O)O)C(C)C)NC(=O)[C@H](C)NC(=O)[C@H](CC(=O)O)NC(=O)[C@H]([C@@H](C)O)NC1=O` (HELM PEPTIDE1{T.C.R.S.S.G.A.Y.C.A.S.P.Y.D.R.R.R.R.Y.C.R.R.I.T.D.A.C.V}$PEPTIDE1,PEPTIDE1,2:R3-9:R3|PEPTIDE1,PEPTIDE1,20:R3-27:R3$$$V2.0): the 50% inhibitory concentration (IC50) came out at 440 nM. In the case of `CC[C@H](C)[C@@H]1NC(=O)[C@H](CCCNC(=N)N)NC(=O)[C@H](CCCNC(=N)N)NC(=O)[C@@H](NC(=O)[C@H](Cc2ccc(O)cc2)NC(=O)[C@H](CCCNC(=N)N)NC(=O)[C@H](CCCNC(=N)N)NC(=O)[C@H](CCCNC(=N)N)NC(=O)[C@H](CCCNC(=N)N)NC(=O)[C@H](CC(=O)O)NC(=O)[C@H](Cc2ccc(O)cc2)NC(=O)[C@@H]2CCCN2C(=O)[C@H](CO)NC(=O)[C@H](CCCNC(=N)N)NC(=O)[C@@H]2CSSC[C@H](NC(=O)[C@@H](N)[C@@H](C)O)C(=O)N[C@@H](C)C(=O)N[C@@H](CO)C(=O)N[C@@H](CO)C(=O)NCC(=O)N[C@@H](C)C(=O)N[C@@H](Cc3ccc(O)cc3)C(=O)N2)CSSC[C@@H](C(=O)N[C@H](C(=O)O)C(C)C)NC(=O)[C@H](C)NC(=O)[C@H](CC(=O)O)NC(=O)[C@H]([C@@H](C)O)NC1=O` (HELM PEPTIDE1{T.C.A.S.S.G.A.Y.C.R.S.P.Y.D.R.R.R.R.Y.C.R.R.I.T.D.A.C.V}$PEPTIDE1,PEPTIDE1,2:R3-9:R3|PEPTIDE1,PEPTIDE1,20:R3-27:R3$$$V2.0), the IC50 worked out at 370 nM. Regarding `CC[C@H](C)[C@@H]1NC(=O)[C@H](CCCNC(=N)N)NC(=O)[C@H](CCCNC(=N)N)NC(=O)[C@@H](NC(=O)[C@H](Cc2ccc(O)cc2)NC(=O)[C@H](CCCNC(=N)N)NC(=O)[C@H](C)NC(=O)[C@H](CCCNC(=N)N)NC(=O)[C@H](C)NC(=O)[C@H](CC(=O)O)NC(=O)[C@H](Cc2ccc(O)cc2)NC(=O)[C@@H]2CCCN2C(=O)[C@H](CO)NC(=O)[C@H](CCCNC(=N)N)NC(=O)[C@@H]2CSSC[C@H](NC(=O)[C@@H](N)[C@@H](C)O)C(=O)N[C@@H](CCCNC(=N)N)C(=O)N[C@@H](CO)C(=O)N[C@@H](CO)C(=O)NCC(=O)N[C@@H](CCCNC(=N)N)C(=O)N[C@@H](Cc3ccc(O)cc3)C(=O)N2)CSSC[C@@H](C(=O)N[C@H](C(=O)O)C(C)C)NC(=O)[C@H](C)NC(=O)[C@H](CC(=O)O)NC(=O)[C@H]([C@@H](C)O)NC1=O`, the IC50 came to 230 nM. The figure for `CC[C@H](C)[C@@H]1NC(=O)[C@H](CCCNC(=N)N)NC(=O)[C@H](CCCNC(=N)N)NC(=O)[C@@H](NC(=O)[C@H](Cc2ccc(O)cc2)NC(=O)[C@H](CCCNC(=N)N)NC(=O)[C@H](CCCNC(=N)N)NC(=O)[C@H](C)NC(=O)[C@H](C)NC(=O)[C@H](CC(=O)O)NC(=O)[C@H](Cc2ccc(O)cc2)NC(=O)[C@@H]2CCCN2C(=O)[C@H](CO)NC(=O)[C@H](CCCNC(=N)N)NC(=O)[C@@H]2CSSC[C@H](NC(=O)[C@@H](N)[C@@H](C)O)C(=O)N[C@@H](CCCNC(=N)N)C(=O)N[C@@H](CO)C(=O)N[C@@H](CO)C(=O)NCC(=O)N[C@@H](CCCNC(=N)N)C(=O)N[C@@H](Cc3ccc(O)cc3)C(=O)N2)CSSC[C@@H](C(=O)N[C@H](C(=O)O)C(C)C)NC(=O)[C@H](C)NC(=O)[C@H](CC(=O)O)NC(=O)[C@H]([C@@H](C)O)NC1=O` is 260 nM. The figure for `CC[C@H](C)[C@@H]1NC(=O)[C@H](CCCNC(=N)N)NC(=O)[C@H](CCCNC(=N)N)NC(=O)[C@@H](NC(=O)[C@H](Cc2ccc(O)cc2)NC(=O)[C@H](CCCNC(=N)N)NC(=O)[C@H](CCCNC(=N)N)NC(=O)[C@H](CCCNC(=N)N)NC(=O)[C@H](CCCNC(=N)N)NC(=O)[C@H](CC(=O)O)NC(=O)[C@H](Cc2ccc(O)cc2)NC(=O)[C@@H]2CCCN2C(=O)[C@H](CO)NC(=O)[C@H](C)NC(=O)[C@@H]2CSSC[C@H](NC(=O)[C@@H](N)[C@@H](C)O)C(=O)N[C@@H](C)C(=O)N[C@@H](CO)C(=O)N[C@@H](CO)C(=O)NCC(=O)N[C@@H](CCCNC(=N)N)C(=O)N[C@@H](Cc3ccc(O)cc3)C(=O)N2)CSSC[C@@H](C(=O)N[C@H](C(=O)O)C(C)C)NC(=O)[C@H](C)NC(=O)[C@H](CC(=O)O)NC(=O)[C@H]([C@@H](C)O)NC1=O` (HELM PEPTIDE1{T.C.A.S.S.G.R.Y.C.A.S.P.Y.D.R.R.R.R.Y.C.R.R.I.T.D.A.C.V}$PEPTIDE1,PEPTIDE1,2:R3-9:R3|PEPTIDE1,PEPTIDE1,20:R3-27:R3$$$V2.0) is 590 nM.

With `CC[C@H](C)[C@@H]1NC(=O)[C@H](CCCNC(=N)N)NC(=O)[C@H](CCCNC(=N)N)NC(=O)[C@@H](NC(=O)[C@H](Cc2ccc(O)cc2)NC(=O)[C@H](C)NC(=O)[C@H](C)NC(=O)[C@H](CCCNC(=N)N)NC(=O)[C@H](CCCNC(=N)N)NC(=O)[C@H](CC(=O)O)NC(=O)[C@H](Cc2ccc(O)cc2)NC(=O)[C@@H]2CCCN2C(=O)[C@H](CO)NC(=O)[C@H](CCCNC(=N)N)NC(=O)[C@@H]2CSSC[C@H](NC(=O)[C@@H](N)[C@@H](C)O)C(=O)N[C@@H](CCCNC(=N)N)C(=O)N[C@@H](CO)C(=O)N[C@@H](CO)C(=O)NCC(=O)N[C@@H](CCCNC(=N)N)C(=O)N[C@@H](Cc3ccc(O)cc3)C(=O)N2)CSSC[C@@H](C(=O)N[C@H](C(=O)O)C(C)C)NC(=O)[C@H](C)NC(=O)[C@H](CC(=O)O)NC(=O)[C@H]([C@@H](C)O)NC1=O`, the concentration for half-maximal inhibition (IC50) was found to be 230 nM. Turning to `CC[C@H](C)[C@@H]1NC(=O)[C@H](CCCNC(=N)N)NC(=O)[C@H](CCCNC(=N)N)NC(=O)[C@@H](NC(=O)[C@H](Cc2ccc(O)cc2)NC(=O)[C@H](C)NC(=O)[C@H](CCCNC(=N)N)NC(=O)[C@H](C)NC(=O)[C@H](CCCNC(=N)N)NC(=O)[C@H](CC(=O)O)NC(=O)[C@H](Cc2ccc(O)cc2)NC(=O)[C@@H]2CCCN2C(=O)[C@H](CO)NC(=O)[C@H](CCCNC(=N)N)NC(=O)[C@@H]2CSSC[C@H](NC(=O)[C@@H](N)[C@@H](C)O)C(=O)N[C@@H](CCCNC(=N)N)C(=O)N[C@@H](CO)C(=O)N[C@@H](CO)C(=O)NCC(=O)N[C@@H](CCCNC(=N)N)C(=O)N[C@@H](Cc3ccc(O)cc3)C(=O)N2)CSSC[C@@H](C(=O)N[C@H](C(=O)O)C(C)C)NC(=O)[C@H](C)NC(=O)[C@H](CC(=O)O)NC(=O)[C@H]([C@@H](C)O)NC1=O`, the 50% inhibitory concentration (IC50) stood at 410 nM.

Source of the values: ChEMBL document CHEMBL5346973 (J Med Chem, 2023).
